PubChem BioAssay (NCI)
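Exposure lasted 48 hours, with cells grown in 96-well plates and compounds tested at five concentrations. GI50: concentration for 50% inhibition of growth. TGI: concentration producing complete growth inhibition.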

Experiments:
Assay in all cases: growth of human tumour cells (NCI), 48 h
[1] = system: HOP-62 NSCLC
[2] = system: HCT-116 colon
[3] = system: KM12 colon
[4] = system: SK-MEL-2 melanoma
[5] = system: SNB-19 CNS
[6] = system: SK-MEL-5 melanoma
[7] = system: HL-60(TB) leukemia
[8] = system: U251 CNS
[9] = system: NCI-H226 lung
[10] = system: PC-3 prostate

| Compound | TGI [1] [µM] | TGI [2] [µM] | TGI [3] [µM] | TGI [4] [µM] | TGI [5] [µM] | TGI [6] [µM] | TGI [7] [µM] | TGI [8] [µM] | TGI [9] [µM] | GI50 [1] [µM] | GI50 [2] [µM] | GI50 [3] [µM] | GI50 [4] [µM] | GI50 [5] [µM] | GI50 [6] [µM] | GI50 [7] [µM] | GI50 [8] [µM] | GI50 [10] [µM] | TGI [10] [µM] | GI50 [9] [µM] |
| --- | --- | --- | --- | --- | --- | --- | --- | --- | --- | --- | --- | --- | --- | --- | --- | --- | --- | --- | --- | --- |
| CC1(Cl)C(=O)NC(=O)N([C@H]2C[C@H](O)[C@@H](CO)O2)C1N=[N+]=[N-] (stereo partly drawn) | > 100 | > 100 | > 100 | > 100 | > 100 | > 100 | > 100 | > 100 | > 100 |  |  |  |  |  |  |  |  |  |  |  |
| CC(=O)OC1(Sc2ccccc2)CC2[C@H]3COC(C)(C)O[C@H]3CC[C@@]2(C)CC1=O (stereo partly drawn) |  | > 100 | > 100 | > 100 | > 100 | 70 |  |  | > 100 |  |  |  |  |  |  |  |  |  |  |  |
| CN(C)CCNC(=O)c1ccc2c(c1)oc1cc3ccccc3c(=O)n12 | 30.8 | 29.4 | 45.3 | 50.5 | 48.7 | 39.9 | 87.9 | 30.6 |  | 16 | 16 | 17 | 28.7 | 25.9 | 23.3 | 23.8 | 15.8 | 28.7 | > 100 |  |
| CC(C)(C)C1=CC(=N/N=c2\scc(-c3ccccc3)n2Cc2ccccc2)C=C(C(C)(C)C)C1=O | > 100 | > 100 |  | > 100 | > 100 | > 100 | > 100 | > 100 | > 100 |  |  |  |  |  |  |  |  |  |  |  |
| O=C(NCCCN1CCN(CCCNC(=O)c2cccc3ccccc23)CC1)c1cccc2ccccc12 | > 100 | > 100 | > 100 | > 100 | > 100 | > 100 | > 100 | > 100 | > 100 |  |  |  |  |  |  |  |  |  |  |  |
| N.N.N.N.N#N.N#N.[Cl-].[Os+6] |  | > 100 | > 100 | > 100 | > 100 | > 100 |  | > 100 | > 100 |  | > 100 | > 100 | > 100 | > 100 | > 100 |  | > 100 |  |  | > 100 |
| S=C1SCC2CCCN12 (stereo not drawn) | > 100 | > 100 | > 100 | > 100 | > 100 | > 100 | > 100 | > 100 |  |  |  |  |  |  |  |  |  |  |  |  |
| O=C(c1ccccc1)c1nc2c(Cl)ccc(Cl)c2cc1C(Br)Br | 3.11 | 1.56 | 2.55 | 4.34 | 3.11 | 2.7 |  | 2.38 | 3.61 |  |  |  |  |  |  |  |  |  |  |  |
| COc1ccc(-c2cn(C)c3c2-n2cccc2C3=O)cc1O | 29.3 | 26.5 | 16.4 | 55.3 |  | 5.93 | > 100 | 29.8 | 39.7 | 5.93 | 11.1 | 3.71 | 19.7 |  | 1.4 | 3.48 | 8.61 | 6.09 | > 100 | 6.33 |
| COc1ccc(CCN2CCCn3c2nc2ccccc2c3=O)cc1 | > 61.8 | > 100 | > 20.5 |  | > 100 | 4.44 | 0.982 |  | > 100 | 0.084 | 0.0493 | 0.0445 |  | 0.629 | 0.0433 | 0.038 | 0.0552 | 0.127 | > 100 | 6.43 |
| COCN1COCN(C)C1=O | > 100 | > 100 | > 100 | > 100 | > 100 | > 100 |  | > 100 | > 100 |  |  |  |  |  |  |  |  |  |  |  |
| CC(C)(C)OC(=O)NCCCCCCCCCn1c2c(c3ccccc3c1=O)C(=O)c1ccccc1-2 | 71.6 |  | > 100 | 71.1 | > 100 | > 100 | > 100 | > 100 | > 100 | 24.8 |  | > 100 | 27.9 | 28.2 | > 100 | > 100 | 22 | > 100 | > 100 | 41 |
| O=C(CC1(O)C(=O)Nc2ccccc21)c1ccc(Cl)c(Cl)c1 (stereo not drawn) |  | > 100 |  | > 100 | > 100 | > 100 | > 100 | > 100 | > 100 |  |  |  |  |  |  |  |  |  |  |  |
| CC(C)(C)c1cc(C2c3cc4c(cc3OC(O)(CO)C2C(=O)O)OCO4)cc(C(C)(C)C)c1O (stereo not drawn) (tested in a mixture with another compound) | 53.1 | 21.2 |  |  | 25.7 | 23.9 | 38.2 | 29.1 |  |  |  |  |  |  |  |  |  |  |  |  |
| N#CN1CC[C@@H]2CC3(CCC2C1)OCCO3 (stereo partly drawn) | > 100 | > 100 | > 100 | > 100 | > 100 | > 100 | > 100 | > 100 | > 100 |  |  |  |  |  |  |  |  |  |  |  |
| COc1ccc(C2=C(OC(C)=O)c3cccn3-c3ccc(Cl)cc3S2)cc1 | > 10 |  | 9.75 |  |  | > 10 | 3.02 |  |  |  |  |  |  |  |  |  |  |  | > 10 |  |
| O=C(c1ccc(Cl)cc1Cl)N1CCN(C(=O)c2ccc(Cl)cc2Cl)C1=S | 66.5 | 57.5 | 29.4 | 36.2 | 65.2 |  | 34.1 | 35.3 | 60.1 | 23.1 | 23.5 | 15.3 | 18.4 | 24.9 |  | 16.6 | 17.8 | 22.7 | 68.3 | 40.9 |
| CN(C)CCCNc1ccnc2c([N+](=O)[O-])cccc12 | 82.5 | 39.1 | > 100 |  | 54.5 |  |  | > 100 | > 100 |  |  |  |  |  |  |  |  |  |  |  |
| COC(=O)CNC(=O)C(=O)c1c(O)c(O)c(C(C)C)c2cc(C)c(-c3c(C)cc4c(C(C)C)c(O)c(O)c(C(=O)C(=O)NCC(=O)OC)c4c3O)c(O)c12 | 9.61 | 6.04 | 7.29 | 2.13 | 7.92 | 11.3 |  | 5.85 |  | 2.41 | 1.79 | 1.39 | 0.832 | 1.53 | 4.29 |  | 1.53 | 1.84 | 7.26 |  |
